We go through 5 compounds from publication PMC3125419 (Journal of acquired immune deficiency syndromes (1999), 2011).

SMILES strings stand for the structures. Read-outs that look alike come from different tables or passages of the source. Marks after values point to notes of the source that are not given here.

The conditions of data set [1]: cited from earlier work.
Data set [2] in a line: One-compartment model with first-order absorption and elimination. As to conditions: median. The data set is classed as in vivo, human.
Data set [3] can be described thus: clinical. As to conditions: female, human, in vivo.
The conditions of data set [4]: female, human, in vivo.
The subject of a further data set is HIV-1 RNA. Briefly: Plasma viral load and infant HIV infection status. As to conditions: for Undetectable (<20, 50, 75 or 400) plasma HIV-1 RNA, N (%): atazanavir/ritonavir-based regimen. Format: in vivo, human.
The conditions of data set [5]: human, in vivo.
The nature of data set [6]: clinical. As to conditions: female, human, in vivo. This is another data set of the same source.
The mark [7] stands for this setting: with tenofovir, median (range), N=19.

As for `CC(C)(C)NC(=O)[C@@H]1CN(Cc2cccnc2)CCN1C[C@@H](O)C[C@@H](Cc1ccccc1)C(=O)N[C@H]1c2ccccc2C[C@H]1O` [indinavir], the “AUC lower during pregnancy compared to postpartum” value in data set [1] (unboosted) is listed as 68%.

Take `Cc1cccc(C)c1OCC(=O)N[C@@H](Cc1ccccc1)[C@@H](O)C[C@H](Cc1ccccc1)NC(=O)[C@H](C(C)C)N1CCCNC1=O` [lopinavir]: in data set [1] (capsules at standard dosing (lopinavir 400 mg/ritonavir 100 mg twice daily)), the “AUC reduction during the third trimester” value is recorded as 50%.

As usually defined, the AUC is concentration integrated over time. In the case of `COC(=O)N[C@H](C(=O)N[C@@H](Cc1ccccc1)[C@@H](O)CN(Cc1ccc(-c2ccccn2)cc1)NC(=O)[C@@H](NC(=O)OC)C(C)(C)C)C(C)(C)C` [Atazanavir], the “CL/F, one-compartment” value was found to be 7.2 L/h in data set [2] (with tenofovir, postpartum); 14.5 L/h in data set [2] (with tenofovir, second trimester); 9.9 L/h in data set [2] (with tenofovir, third trimester); 4.9 L/h in data set [2] (without tenofovir, postpartum); 3.1 L/h in data set [2] (without tenofovir, second trimester); 6.7 L/h in data set [2] (without tenofovir, third trimester). For the same compound, the Kp in “clinical [3]” is 0.18. Also, in the data set “clinical [3]”, the “concentration in cord blood” value is on record as 0.16 (<0.047 – 0.42) mcg/mL. Moreover, in “clinical [3]”, the “concentration in maternal delivery plasma” value is reported as 0.83 (0.11 - 2.36) mcg/mL. In “clinical [3]”, the “ratio of concentration in cord blood to that in maternal delivery plasma” value is given as 0.18 (0.04 – 0.45). Moreover, in data set [4], the “Grade 3 or 4 hyperbilirubinemia” value worked out at 14 subjects. Further, the “Grade 3 or 4 toxicities” value in data set [4] was 16 subjects. Moreover, the “infants HIV-uninfected” value in the data set with HIV-1 RNA (38 infants, status indeterminate for one) was “Thirty-seven”. For the same compound, the “Undetectable (<20, 50, 75 or 400) plasma HIV-1 RNA, N (%)” value in the data set with HIV-1 RNA (delivery, with tenofovir) is recorded as 17 (89%) ^‡; in the data set on HIV-1 RNA (delivery, with tenofovir, listed as atazanavir), 17 of 19; with HIV-1 RNA (delivery, without tenofovir) it was 11 (69%) ^†; in the data set on HIV-1 RNA (delivery, without tenofovir, listed as atazanavir) it was 11 of 16; with HIV-1 RNA (postpartum, with tenofovir), 14 (100%) ^++; in the data set with HIV-1 RNA (postpartum, without tenofovir), 8 (73%) ^+. Further, the “Undetectable (<20, 50, 75 or 400) plasma HIV-1 RNA, N (%)” value in the data set with HIV-1 RNA (third trimester, with tenofovir) is given as 15 (79%) ^§; in the data set on HIV-1 RNA (third trimester, without tenofovir), 13 (72%) ^**. Further, in the data set with HIV-1 RNA (with tenofovir, median (range), N=14), the “Postpartum plasma HIV-1 RNA” value is <75 (<20 - <400) copies/mL. The “Delivery plasma HIV-1 RNA” value is reported as <75 (<20 – 116) copies/mL in the data set on HIV-1 RNA (setting [7]) and <62.5 (<50 - 29933) copies/mL in the data set with HIV-1 RNA (without tenofovir, median (range), N=16). The “third trimester plasma HIV-1 RNA” value is recorded as <50 (<20 – 1630) copies/mL with HIV-1 RNA (setting [7]) and <62.5 (<50 - 19314) copies/mL in the data set on HIV-1 RNA (without tenofovir, median (range), N=18). Moreover, the “additional reduction of AUC0-24 and Cmin when coadministered with tenofovir” value in data set [5] (female) was determined as 25%. Moreover, in “clinical [6]”, the Tmax is 4 h. For the same compound, the “estimated 10th percentile AUC0-24” value in data set [1] (non-pregnant adult populations, standard dose) was 29400 ng·h/mL. Also, the “mean AUC” value in data set [1] (non-pregnant historical controls taking the standard dose) is 57000 ng·h/mL; in data set [1] (postpartum, ref Ripamonti, 9), 30500 ng·h/mL. In addition, the “geometric mean AUC” value in data set [1] (nonpregnant HIV infected adults) is 46100 ng·h/mL; in data set [1] (third trimester, 12 women, ref Eley et al, 10) it was 26600 ng·h/mL. Also, the AUC in data set [1] (postpartum, ref Eley, 10) is 57200 ng·h/mL.

Usually Vd/F stands for the volume of distribution divided by bioavailability. As usually defined, the CL/F is the apparent clearance, not corrected for the fraction that reaches the circulation. As for `CC(C)c1nc(CN(C)C(=O)N[C@H](C(=O)N[C@@H](Cc2ccccc2)C[C@H](O)[C@H](Cc2ccccc2)NC(=O)OCc2cncs2)C(C)C)cs1` [Ritonavir], in data set [5] (female), the Tmax is listed as 4 (2 – 4) hr and the Vd/F is recorded as 34.2 L. Also, in data set [5], the “AUC0-24, C0, Cmax and C24 during the 3rd trimester compared to postpartum” value is on record as “decreased”; the apparent clearance (CL/F) amounted to 6.8 L/h; the “Cl/F during the 3rd trimester compared to postpartum” value is “increased”. Besides, the Tmax in the data set “clinical [6]” amounted to 6 h.

Take `CC(C)(C)NC(=O)[C@@H]1C[C@@H]2CCCC[C@@H]2CN1C[C@@H](O)[C@H](Cc1ccccc1)NC(=O)[C@H](CC(N)=O)NC(=O)c1ccc2ccccc2n1` [saquinavir]: the “pregnant subjects achieving adequate trough concentrations” value in data set [1] (saquinavir 1200 mg/ritonavir 100 mg once daily) is listed as 93%.
